From US20090054392A1, “NAPHTHYLPYRIMIDINE, NAPHTHYLPYRAZINE AND NAPHTHYLPYRIDAZINE ANALOGS AND THEIR USE AS AGONISTS OF THE WNT-BETA-CATENIN CELLULAR MESSAGING SYSTEM” (Wyeth, priority 2007, published 2009)

System: Dkk1-LRP5-TCF-Luciferase
Assay: Functional Dkk1-LRP5-TCF-Luciferase Assay in U2OS Cells
Settings: for EC50 / fold induction at 2 µM / fold induction at 20 µM: Homo sapiens, U2OS; for fold induction at 2 µM: read-out: B = TCF ACTIVITY/DMSO CONTROL Fold induction @ 2.0 uM, 2.0 uM compound; for fold induction at 20 µM: read-out: C = TCF ACTIVITY/DMSO CONTROL Fold induction @ 20.0 uM, 20.0 uM compound; for A = MAX FOLD Induction/DMSO CONTROL: maximum fold induction over DMSO control
Procedure: Biological Evaluation—Functional Dkk1-LRP5-TCF-Luciferase Assay in U2OS Cells
Frozen U2OS-Dkk1-HTS Reporter cells generation: U2OS Human Bone derived cells (Osteosarcoma) are grown in McCoy's 5A Medium (Modified), with L -glutamine (GIBCO Cat No. 16600-082)+1% Pen-Strep+5% FBS) plated at 1×10^7 cells/T175 cm flask. The next day, the cells are co-transfected overnight with the following plasmids: (a) Test reporter (16×TCF-TK-FireFly-Luci), (b) Internal Control Reporter (TK-Renilla-Luci), (c) Wnt3a and (d) Dkk1. GIBCO's Lipofectamine 2000 and OptiMEM are used for the transfection. After a minimum of 4 hr of transfection at 37° C., the plasmid-transfected cells are trypsinized, counted, and suspended in freezing medium (95% FBS+5% DMSO). The reporter cells are frozen at 1×10^7/ml concentrations, aliquoted into 0.5 ml or 2.5 ml/tube and stored at 70° C.
The following day, test compounds are added under HTS setup by Plate Track into 384 well plates (white, TC treated, Falcon plate) such that the final concentration of the compounds in 20 μL/well cell will be 5 μg/ml (final concentration of DMSO=0.25% and final compound concentration=20 μM). Vials of frozen reporter cells are thawed by warming the vial in a 37° C. water bath for 60-120 seconds with some shaking until the cells formed a suspension. The thawed cells are transferred into a cold 50 ml (or larger) tube and mixed well by gentle pipetting. The appropriate amount of cold Phenol Red Free RPMI medium-1640 (GIBCO, Cat #11835-030) with L-glutamine is added, both with ˜5% FBS (GIBCO-BRL, Cat. #16000-044), so that 20 μl of the final cell suspension will contain ˜5,000 cells. The cell dilution is done such that the final concentration of FBS is ˜5%.
Diluted cells (20 μl) are added into each well in a 384 well plate. The plate is incubated at 37° C. under 5% CO2 for ˜20 h. Bright-Glo substrate, 2.5 μl/well is added, and the Fire Fly Luciferase is measured using VLUX (60 second exposure) immediately after the substrate is added. Test compounds are dissolved in DMSO (100%) and added to specified wells. Raw luciferase signal data obtained as relative luminescence units (RLUs) for the test compounds are normalized to the signal of the mean of the sample reporter cell plate with DMSO.

EC50 | A = MAX FOLD Induction/DMSO CONTROL | Structure (SMILES) | fold induction at 2 µM | fold induction at 20 µM
6.85 µM | – | O=C1CCCCN1C[C@@H]1CCN(c2nccc(-c3ccc4ccccc4c3)n2)C1 [1-({(3R)-1-[4-(2-naphthyl)pyrimidin-2-yl]pyrrolidin-3-yl}methyl)piperidin-2-one] | 1.14 | 2.33
– | 2.000 fold | O=C1CCCCN1C[C@H]1CCN(c2nccc(-c3ccc4ccccc4c3)n2)C1 [1-({(3S)-1-[4-(2-naphthyl)pyrimidin-2-yl]pyrrolidin-3-yl}methyl)piperidin-2-one] | 1.07 | 2.45
– | – | c1ccc2cc(-c3ccnc(N4CCCNCC4)n3)ccc2c1 [1-[4-(2-naphthyl)pyrimidin-2-yl]-1,4-diazepane] | 1.36 | 0.85
– | – | O=[N+]([O-])CC1(O)CCN(c2nccc(-c3ccc4ccccc4c3)n2)CC1 [1-[4-(2-naphthyl)pyrimidin-2-yl]-4-(nitromethyl)piperidin-4-ol] | 1.19 | 1.49
– | – | O=C(N1CCCN(c2nccc(-c3ccc4ccccc4c3)n2)CC1)C(F)(F)F [1-[4-(2-naphthyl)pyrimidin-2-yl]-4-(trifluoroacetyl)-1,4-diazepane] | – | 1.24
28.5 µM | 2.260 fold | CCC(=O)N1CCCN(c2nccc(-c3ccc4ccccc4c3)n2)CC1 [1-[4-(2-naphthyl)pyrimidin-2-yl]-4-propionyl-1,4-diazepane] | – | 2.23
– | – | NC1CCCN(c2nccc(-c3ccc4ccccc4c3)n2)CC1 (stereo not drawn) [1-[4-(2-naphthyl)pyrimidin-2-yl]azepan-4-amine] | 1.95 | –
– | – | c1ccc2cc(-c3ccnc(N4CCCCCC4)n3)ccc2c1 [1-[4-(2-naphthyl)pyrimidin-2-yl]azepane] | 1.54 | –
0.97 µM | 1.580 fold | NC1CCN(c2nccc(-c3ccc4ccccc4c3)n2)CC1 [1-[4-(2-naphthyl)pyrimidin-2-yl]piperidin-4-amine] | 2.11 | –
1.28 µM | 2.224 fold | OC1CCN(c2nccc(-c3ccc4ccccc4c3)n2)CC1 [1-[4-(2-naphthyl)pyrimidin-2-yl]piperidin-4-ol] | 1.35 | 0.28
– | – | O=C1CCN(c2nccc(-c3ccc4ccccc4c3)n2)CC1 [1-[4-(2-naphthyl)pyrimidin-2-yl]piperidin-4-one] | 1.43 | 1.19
1.27 µM | 2.230 fold | NC(=O)C1CCCN(c2nccc(-c3ccc4ccccc4c3)n2)C1 (stereo not drawn) [1-[4-(2-naphthyl)pyrimidin-2-yl]piperidine-3-carboxamide] | 2.17 | 2.7
– | – | O=CC1CCN(c2nccc(-c3ccc4ccccc4c3)n2)CC1 [1-[4-(2-naphthyl)pyrimidin-2-yl]piperidine-4-carbaldehyde] | 1.51 | 0.25
1.07 µM | 5.015 fold | N#CC1CCN(c2nccc(-c3ccc4ccccc4c3)n2)CC1 [1-[4-(2-naphthyl)pyrimidin-2-yl]piperidine-4-carbonitrile] | 2.79 | –
– | 2.070 fold | NC(=S)C1CCN(c2nccc(-c3ccc4ccccc4c3)n2)CC1 [1-[4-(2-naphthyl)pyrimidin-2-yl]piperidine-4-carbothioamide] | 1.74 | 1.99
– | 1.660 fold | NC(=O)C1CCN(c2nccc(-c3ccc4ccccc4c3)n2)CC1 [1-[4-(2-naphthyl)pyrimidin-2-yl]piperidine-4-carboxamide] | 1.62 | 1.15
– | – | O=C(O)C1CCN(c2nccc(-c3ccc4ccccc4c3)n2)CC1 [1-[4-(2-naphthyl)pyrimidin-2-yl]piperidine-4-carboxylic acid] | 1.78 | 0.57
– | – | Cc1ccc(S(=O)(=O)N2CCCN(c3nccc(-c4ccc5ccccc5c4)n3)CC2)cc1 [1-[(4-methylphenyl)sulfonyl]-4-[4-(2-naphthyl)pyrimidin-2-yl]-1,4-diazepane] | 1.76 | –
– | – | NC[C@H]1CC[C@H](c2nccc(-c3ccc4ccccc4c3)n2)CC1 [1-[trans-4-(4-naphthalen-2-ylpyrimidin-2-yl)cyclohexyl]methanamine] | 3.5 | –
7.3 µM | 1.757 fold | CC(=O)N1CCCN(c2nccc(-c3ccc4ccccc4c3)n2)CC1 [1-acetyl-4-[4-(2-naphthyl)pyrimidin-2-yl]-1,4-diazepane] | 1.46 | 3.21

EC50 | A = MAX FOLD Induction/DMSO CONTROL | Structure (SMILES) | fold induction at 2 µM | fold induction at 20 µM
– | – | O=C(c1ccccc1)N1CCCN(c2nccc(-c3ccc4ccccc4c3)n2)CC1 [1-benzoyl-4-[4-(2-naphthyl)pyrimidin-2-yl]-1,4-diazepane] | 1.06 | 0.35
0.787 µM | 5.673 fold | NCC1CCN(c2ccnc(-c3ccc4ccccc4c3)n2)CC1 [1-{1-[2-(2-naphthyl)pyrimidin-4-yl]piperidin-4-yl}methanamine] | 3.22 | 0.003
– | 1.820 fold | NCC1CCN(c2nccc(-c3ccc4ccccc4c3)n2)c2ccccc21 (stereo not drawn) [1-{1-[4-(2-naphthyl)pyrimidin-2-yl]-1,2,3,4-tetrahydroquinolin-4-yl}methanamine] | – | –
22.9 µM | 3.080 fold | NCC1CN(c2nccc(-c3ccc4ccccc4c3)n2)C1 [1-{1-[4-(2-naphthyl)pyrimidin-2-yl]azetidin-3-yl}methanamine] | 2.56 | 0.71
– | – | O=c1[nH]c2ccccc2n1C1CCN(c2nccc(-c3ccc4ccccc4c3)n2)CC1 [1-{1-[4-(2-naphthyl)pyrimidin-2-yl]piperidin-4-yl}-1,3-dihydro-2H-benzimidazol-2-one] | 1.03 | 0.01
1.09 µM | 2.891 fold | CC(N)C1CCN(c2nccc(-c3ccc4ccccc4c3)n2)CC1 (stereo not drawn) [1-{1-[4-(2-naphthyl)pyrimidin-2-yl]piperidin-4-yl}ethanamine] | 2.33 | 0.006
2.26 µM | 4.063 fold | NCC1CCN(c2nccc(-c3ccc4ccccc4c3)n2)C1 (stereo not drawn) [1-{1-[4-(2-naphthyl)pyrimidin-2-yl]pyrrolidin-3-yl}methanamine] | 4.53 | 0.01
– | – | CC(C)COc1ccc2cc(-c3ccnc(N4CCC(CN)CC4)n3)ccc2c1 [1-{1-[4-(6-isobutoxy-2-naphthyl)pyrimidin-2-yl]piperidin-4-yl}methanamine] | 1.54 | –
1.06 µM | 3.233 fold | COc1ccc2cc(-c3ccnc(N4CCC(CN)CC4)n3)ccc2c1 [1-{1-[4-(6-methoxy-2-naphthyl)pyrimidin-2-yl]piperidin-4-yl}methanamine] | 2.27 | –
1.22 µM | 2.820 fold | Cc1ccc2cc(-c3ccnc(N4CCC(CN)CC4)n3)ccc2c1 [1-{1-[4-(6-methyl-2-naphthyl)pyrimidin-2-yl]piperidin-4-yl}methanamine] | 2.88 | –
– | – | NCC1CCN(c2nccc(-c3ccc4cc(-c5ccccc5)ccc4c3)n2)CC1 [1-{1-[4-(6-phenyl-2-naphthyl)pyrimidin-2-yl]piperidin-4-yl}methanamine] | 1.63 | –
– | – | CCCOc1ccc2cc(-c3ccnc(N4CCC(CN)CC4)n3)ccc2c1 [1-{1-[4-(6-propoxy-2-naphthyl)pyrimidin-2-yl]piperidin-4-yl}methanamine] | 1.33 | –
– | – | C=Cc1ccc2cc(-c3ccnc(N4CCC(CN)CC4)n3)ccc2c1 [1-{1-[4-(6-vinyl-2-naphthyl)pyrimidin-2-yl]piperidin-4-yl}methanamine] | 1.21 | –
– | – | NCC1CCN(c2cc(-c3ccc4ccccc4c3)cnn2)CC1 [1-{1-[5-(2-naphthyl)pyridazin-3-yl]piperidin-4-yl}methanamine] | 1.58 | 0.4
1.2 µM | 2.900 fold | NCC1CCN(c2ncc(-c3ccc4ccccc4c3)cn2)CC1 [1-{1-[5-(2-naphthyl)pyrimidin-2-yl]piperidin-4-yl}methanamine] | 3.1 | –
1.16 µM | 2.920 fold | NCC1CCN(c2cncc(-c3ccc4ccccc4c3)n2)CC1 [1-{1-[6-(2-naphthyl)pyrazin-2-yl]piperidin-4-yl}methanamine] | 1.6 | –
1.59 µM | 3.226 fold | NCC1CCN(c2cc(-c3ccc4ccccc4c3)ncn2)CC1 [1-{1-[6-(2-naphthyl)pyrimidin-4-yl]piperidin-4-yl}methanamine] | 2.79 | 1
– | – | NCc1ccc(-c2nccc(-c3ccc4ccccc4c3)n2)cc1 [1-{4-[4-(2-naphthyl)pyrimidin-2-yl]phenyl}methanamine] | 2.5 | –
– | – | NC[C@@H]1C[C@@H]2C[C@H]1CN2c1nccc(-c2ccc3ccccc3c2)n1 [1-{(1R,4R,5R)-2-[4-(2-naphthyl)pyrimidin-2-yl]-2-azabicyclo[2.2.1]hept-5-yl}methanamine] | 1.4 | –
– | – | NC[C@H]1C[C@@H]2C[C@H]1CN2c1nccc(-c2ccc3ccccc3c2)n1 [1-{(1R,4R,5S)-2-[4-(2-naphthyl)pyrimidin-2-yl]-2-azabicyclo[2.2.1]hept-5-yl}methanamine] | 1.8 | –

Structure (SMILES) | EC50 | A = MAX FOLD Induction/DMSO CONTROL | fold induction at 2 µM | fold induction at 20 µM
NCC1CC2CCC(C1)N2c1nccc(-c2ccc3ccccc3c2)n1 (stereo not drawn) [1-{8-[4-(2-naphthyl)pyrimidin-2-yl]-8-azabicyclo[3.2.1]oct-3-yl}methanamine] | 0.55 µM | – | 1.5 | –
